Test results: PMC6409085, “Three odorant-binding proteins are involved in the behavioral response of Sogatella furcifera to rice plant volatiles” (PeerJ, 2019)
Several values for one entry are separate records, joined by “and”; a condition that tells them apart may be missing. Equal values may be shown once.

Legend:
SfurOBP3 = SfurOBP3 (Sogatella furcifera, UniProt V5T818); assay: biochemical; format: binding; conditions: for Fluorescence competitive binding assay, fluorescence intensity: OBP3, three replicate columns
Sequence of SfurOBP3 (V5T818 entry or part of it): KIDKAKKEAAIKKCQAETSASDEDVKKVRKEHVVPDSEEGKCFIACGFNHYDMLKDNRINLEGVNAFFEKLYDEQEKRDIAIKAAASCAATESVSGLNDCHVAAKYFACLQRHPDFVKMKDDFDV
Summary of the method: (§1)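 Protein 2.0 µM + 1-NPN 2.0 µM, 50 mM Tris-HCl pH 7.4; competitor odorants 2, 4 … 20 µM final; read 2 min post-addition, ex 337/em 390–490 nm; n=3. K1-NPN from 1-NPN titration/Scatchard; Ki from IC50 corrected for free 1-NPN.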

SfurOBP2 = SfurOBP2 (Sogatella furcifera, UniProt V5T759); assay: biochemical; format: binding
Sequence of SfurOBP2 (V5T759 entry or part of it): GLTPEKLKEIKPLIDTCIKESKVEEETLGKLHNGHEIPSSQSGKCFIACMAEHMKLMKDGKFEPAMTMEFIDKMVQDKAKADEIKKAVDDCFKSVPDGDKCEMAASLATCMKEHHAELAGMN
Summary of the method: as §1

SfurOBP11 = SfurOBP11 (Sogatella furcifera, UniProt V5T6E3); assay: biochemical; format: binding
Sequence of SfurOBP11 (V5T6E3 entry or part of it): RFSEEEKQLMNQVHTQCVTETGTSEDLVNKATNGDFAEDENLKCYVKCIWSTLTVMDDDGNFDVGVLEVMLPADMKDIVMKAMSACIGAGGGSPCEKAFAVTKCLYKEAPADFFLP
Summary of the method: as §1

SfurOBP1 = SfurOBP1 (Sogatella furcifera, UniProt V5T8N5); assay: biochemical; format: binding; conditions: for Fluorescence competitive binding assay, fluorescence intensity: OBP1, three replicate columns
Sequence of SfurOBP1 (V5T8N5 entry or part of it): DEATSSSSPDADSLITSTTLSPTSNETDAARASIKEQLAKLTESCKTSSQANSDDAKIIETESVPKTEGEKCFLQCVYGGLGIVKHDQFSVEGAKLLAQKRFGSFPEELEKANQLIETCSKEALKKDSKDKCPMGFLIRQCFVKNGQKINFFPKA
Summary of the method: as §1

S. furcifera adults = assay: Y-tube olfactometer behavioral trials; format: in vivo, Sogatella furcifera; conditions: odorant 50 µL/L vs hexane; adults
Protocol: To test the effect of the rice odorants on the behavior of S. furcifera adults, a glass Y-tube olfactometer (inner diameter 2.0 cm, stem 13 cm, arms 10 cm, angle of arms 60°) according to the previously described ([Wang et al., 2014b]) was employed. An airtight cubic box (70 by 45 by 30 cm) was used to position Y-tube, and the Y-tube was lighted by a 30-W filament lamp 25 cm above it. Air that filtered through activated charcoal and humidified with doubly distilled water was pumped in both arms at a flow rate of 300 mL/min. Two filter paper strips (10 by 1 cm) containing 100 µL odorant source (50 µL/L) and 100 µL control hexane were placed in two holding chambers in the front of the olfactometer, respectively. A S. furcifera adult (2 days after emergence, starved for 0.5 h) was randomly chosen and placed in the stem of the Y-tube. Each insect was given 10 min to choose between the two arms of the Y-tube, the choice was noted if the planthopper reached one-half of the arms’ lengths and stayed in the arm for more than 1 min. Besides, S. furcifera was considered as having no orientation preference. Forty-five individuals were used for each compound, each insect used only once. And the dual-choice experiment was done in an environmentally controlled room (25 ± 1 °C and 50% RH). A Chi-squared test was used to analyze the behavioral assay data by using SPSS19.0 (SPSS Inc., Chicago, IL, USA) software.

For C=CC(C)(O)CCC=C(C)CCC=C(C)C (mixture of isomers) [nerolidol], the “Fluorescence competitive binding assay, fluorescence intensity” value (SfurOBP3; ligand concentration 2) was 55523 and 54254 and 55950, the “Fluorescence competitive binding assay, fluorescence intensity” value (SfurOBP3; ligand concentration 4) was 52204 and 49599 and 49733 and the “Fluorescence competitive binding assay, fluorescence intensity” value (SfurOBP3; ligand concentration 6) was 48530 and 49919 and 47140. The “Fluorescence competitive binding assay, fluorescence intensity” value (SfurOBP3; ligand concentration 8) was 48179 and 44521 and 46350, the “Fluorescence competitive binding assay, fluorescence intensity” value (SfurOBP3; ligand concentration 10) was 42323 and 44632 and 41414 and the “Fluorescence competitive binding assay, fluorescence intensity” value (SfurOBP3; ligand concentration 12) was 39705 and 38987 and 37616. The “Fluorescence competitive binding assay, fluorescence intensity” value (SfurOBP3; ligand concentration 14) was 34880 and 34317 and 34633, the “Fluorescence competitive binding assay, fluorescence intensity” value (SfurOBP3; ligand concentration 16) was 32423 and 30011 and 29519 and the “Fluorescence competitive binding assay, fluorescence intensity” value (SfurOBP3; ligand concentration 18) was 30169 and 30976 and 30764. For the same molecule, the “Fluorescence competitive binding assay, fluorescence intensity” value (SfurOBP3; ligand concentration 20) was 29092 and 31304 and 30368, the “binding affinity to SfurOBP3 (in words)” value (SfurOBP3; SfurOBP3) was “high binding affinities” and the IC50 (SfurOBP3; SfurOBP3, protein and 1-NPN both 2.0 µM, competitor 2-20 µM, read-out: IC50) was 19 µM. For the same molecule, the IC50 (SfurOBP2; SfurOBP2, protein and 1-NPN both 2.0 µM, competitor 2-20 µM, read-out: IC50) was 18.2 µM, the “Fluorescence competitive binding assay, OBP2 (raw fluorescence reading)” value (SfurOBP2; ligand concentration 2 (unit not given), replicate column 1 of 3) was 16746 and the “Fluorescence competitive binding assay, OBP2 (raw fluorescence reading)” value (SfurOBP2; ligand concentration 2 (unit not given), replicate column 2 of 3) was 14676. For the same molecule, the “Fluorescence competitive binding assay, OBP2 (raw fluorescence reading)” value (SfurOBP2; ligand concentration 2 (unit not given), replicate column 3 of 3) was 15441, the “Fluorescence competitive binding assay, OBP2 (raw fluorescence reading)” value (SfurOBP2; ligand concentration 4 (unit not given), replicate column 1 of 3) was 14875 and the “Fluorescence competitive binding assay, OBP2 (raw fluorescence reading)” value (SfurOBP2; ligand concentration 4 (unit not given), replicate column 2 of 3) was 15827. For the same molecule, the “Fluorescence competitive binding assay, OBP2 (raw fluorescence reading)” value (SfurOBP2; ligand concentration 4 (unit not given), replicate column 3 of 3) was 16107, the “Fluorescence competitive binding assay, OBP2 (raw fluorescence reading)” value (SfurOBP2; ligand concentration 6 (unit not given), replicate column 1 of 3) was 14243 and the “Fluorescence competitive binding assay, OBP2 (raw fluorescence reading)” value (SfurOBP2; ligand concentration 6 (unit not given), replicate column 2 of 3) was 15150. The “Fluorescence competitive binding assay, OBP2 (raw fluorescence reading)” value (SfurOBP2; ligand concentration 6 (unit not given), replicate column 3 of 3) was 15095, the “Fluorescence competitive binding assay, OBP2 (raw fluorescence reading)” value (SfurOBP2; ligand concentration 8 (unit not given), replicate column 1 of 3) was 12994 and the “Fluorescence competitive binding assay, OBP2 (raw fluorescence reading)” value (SfurOBP2; ligand concentration 8 (unit not given), replicate column 2 of 3) was 13858. For the same molecule, the “Fluorescence competitive binding assay, OBP2 (raw fluorescence reading)” value (SfurOBP2; ligand concentration 8 (unit not given), replicate column 3 of 3) was 14632, the “Fluorescence competitive binding assay, OBP2 (raw fluorescence reading)” value (SfurOBP2; ligand concentration 10 (unit not given), replicate column 1 of 3) was 12524 and the “Fluorescence competitive binding assay, OBP2 (raw fluorescence reading)” value (SfurOBP2; ligand concentration 10 (unit not given), replicate column 2 of 3) was 13543. The “Fluorescence competitive binding assay, OBP2 (raw fluorescence reading)” value (SfurOBP2; ligand concentration 10 (unit not given), replicate column 3 of 3) was 13950, the “Fluorescence competitive binding assay, OBP2 (raw fluorescence reading)” value (SfurOBP2; ligand concentration 12 (unit not given), replicate column 1 of 3) was 11798 and the “Fluorescence competitive binding assay, OBP2 (raw fluorescence reading)” value (SfurOBP2; ligand concentration 12 (unit not given), replicate column 2 of 3) was 13085. For the same molecule, the “Fluorescence competitive binding assay, OBP2 (raw fluorescence reading)” value (SfurOBP2; ligand concentration 12 (unit not given), replicate column 3 of 3) was 12945, the “Fluorescence competitive binding assay, OBP2 (raw fluorescence reading)” value (SfurOBP2; ligand concentration 14 (unit not given), replicate column 1 of 3) was 12191 and the “Fluorescence competitive binding assay, OBP2 (raw fluorescence reading)” value (SfurOBP2; ligand concentration 14 (unit not given), replicate column 2 of 3) was 12517. The “Fluorescence competitive binding assay, OBP2 (raw fluorescence reading)” value (SfurOBP2; ligand concentration 14 (unit not given), replicate column 3 of 3) was 12178, the “Fluorescence competitive binding assay, OBP2 (raw fluorescence reading)” value (SfurOBP2; ligand concentration 16 (unit not given), replicate column 1 of 3) was 11027 and the “Fluorescence competitive binding assay, OBP2 (raw fluorescence reading)” value (SfurOBP2; ligand concentration 16 (unit not given), replicate column 2 of 3) was 11256. The “Fluorescence competitive binding assay, OBP2 (raw fluorescence reading)” value (SfurOBP2; ligand concentration 16 (unit not given), replicate column 3 of 3) was 11449, the “Fluorescence competitive binding assay, OBP2 (raw fluorescence reading)” value (SfurOBP2; ligand concentration 18 (unit not given), replicate column 1 of 3) was 11299 and the “Fluorescence competitive binding assay, OBP2 (raw fluorescence reading)” value (SfurOBP2; ligand concentration 18 (unit not given), replicate column 2 of 3) was 11344. The “Fluorescence competitive binding assay, OBP2 (raw fluorescence reading)” value (SfurOBP2; ligand concentration 18 (unit not given), replicate column 3 of 3) was 11251, the “Fluorescence competitive binding assay, OBP2 (raw fluorescence reading)” value (SfurOBP2; ligand concentration 20 (unit not given), replicate column 1 of 3) was 11544 and the “Fluorescence competitive binding assay, OBP2 (raw fluorescence reading)” value (SfurOBP2; ligand concentration 20 (unit not given), replicate column 2 of 3) was 11076. The “Fluorescence competitive binding assay, OBP2 (raw fluorescence reading)” value (SfurOBP2; ligand concentration 20 (unit not given), replicate column 3 of 3) was 11172, the IC50 (SfurOBP11; SfurOBP11, protein and 1-NPN both 2.0 µM, competitor 2-20 µM, read-out: IC50) was over 20 µM and the “Fluorescence intensity, fluorescence competitive binding assay, OBP11” value (“Fluorescence intensity … OBP11” for short) (SfurOBP11; ligand concentration 2, replicate 1) was 32108. The “Fluorescence intensity … OBP11” value (SfurOBP11; ligand concentration 2, replicate 2) was 31162, the “Fluorescence intensity … OBP11” value (SfurOBP11; ligand concentration 2, replicate 3) was 30215 and the “Fluorescence intensity … OBP11” value (SfurOBP11; ligand concentration 4, replicate 1) was 28342. The “Fluorescence intensity … OBP11” value (SfurOBP11; ligand concentration 4, replicate 2) was 28762, the “Fluorescence intensity … OBP11” value (SfurOBP11; ligand concentration 4, replicate 3) was 29181 and the “Fluorescence intensity … OBP11” value (SfurOBP11; ligand concentration 6, replicate 1) was 25372. The “Fluorescence intensity … OBP11” value (SfurOBP11; ligand concentration 6, replicate 2) was 24386, the “Fluorescence intensity … OBP11” value (SfurOBP11; ligand concentration 6, replicate 3) was 25974 and the “Fluorescence intensity … OBP11” value (SfurOBP11; ligand concentration 8, replicate 1) was 24916. For the same molecule, the “Fluorescence intensity … OBP11” value (SfurOBP11; ligand concentration 8, replicate 2) was 25493, the “Fluorescence intensity … OBP11” value (SfurOBP11; ligand concentration 8, replicate 3) was 26070 and the “Fluorescence intensity … OBP11” value (SfurOBP11; ligand concentration 10, replicate 1) was 22613. For the same molecule, the “Fluorescence intensity … OBP11” value (SfurOBP11; ligand concentration 10, replicate 2) was 22095, the “Fluorescence intensity … OBP11” value (SfurOBP11; ligand concentration 10, replicate 3) was 23428 and the “Fluorescence intensity … OBP11” value (SfurOBP11; ligand concentration 12, replicate 1) was 21169. The “Fluorescence intensity … OBP11” value (SfurOBP11; ligand concentration 12, replicate 2) was 22102, the “Fluorescence intensity … OBP11” value (SfurOBP11; ligand concentration 12, replicate 3) was 22210 and the “Fluorescence intensity … OBP11” value (SfurOBP11; ligand concentration 14, replicate 1) was 20351. The “Fluorescence intensity … OBP11” value (SfurOBP11; ligand concentration 14, replicate 2) was 23661, the “Fluorescence intensity … OBP11” value (SfurOBP11; ligand concentration 14, replicate 3) was 21671 and the “Fluorescence intensity … OBP11” value (SfurOBP11; ligand concentration 16, replicate 1) was 17887. For the same molecule, the “Fluorescence intensity … OBP11” value (SfurOBP11; ligand concentration 16, replicate 2) was 19544, the “Fluorescence intensity … OBP11” value (SfurOBP11; ligand concentration 16, replicate 3) was 17889 and the “Fluorescence intensity … OBP11” value (SfurOBP11; ligand concentration 18, replicate 1) was 23369. For the same molecule, the “Fluorescence intensity … OBP11” value (SfurOBP11; ligand concentration 18, replicate 2) was 23675, the “Fluorescence intensity … OBP11” value (SfurOBP11; ligand concentration 18, replicate 3) was 24479 and the “Fluorescence intensity … OBP11” value (SfurOBP11; ligand concentration 20, replicate 1) was 22182. For the same molecule, the “Fluorescence intensity … OBP11” value (SfurOBP11; ligand concentration 20, replicate 2) was 24009, the “Fluorescence intensity … OBP11” value (SfurOBP11; ligand concentration 20, replicate 3) was 23801 and the “Fluorescence competitive binding assay, fluorescence intensity” value (SfurOBP1; ligand concentration 2 (μM)) was 6708 and 6744 and 6934. For the same molecule, the “Fluorescence competitive binding assay, fluorescence intensity” value (SfurOBP1; ligand concentration 4 (μM)) was 6359 and 8427 and 6473, the “Fluorescence competitive binding assay, fluorescence intensity” value (SfurOBP1; ligand concentration 6 (μM)) was 6867 and 6865 and 7375 and the “Fluorescence competitive binding assay, fluorescence intensity” value (SfurOBP1; ligand concentration 8 (μM)) was 8143 and 7305 and 8959. For the same molecule, the “Fluorescence competitive binding assay, fluorescence intensity” value (SfurOBP1; ligand concentration 10 (μM)) was 7362 and 11085 and 8523, the “Fluorescence competitive binding assay, fluorescence intensity” value (SfurOBP1; ligand concentration 12 (μM)) was 6544 and 7094 and 6753 and the “Fluorescence competitive binding assay, fluorescence intensity” value (SfurOBP1; ligand concentration 14 (μM)) was 7135 and 7404 and 8089. The “Fluorescence competitive binding assay, fluorescence intensity” value (SfurOBP1; ligand concentration 16 (μM)) was 5378 and 6818 and 6356, the “Fluorescence competitive binding assay, fluorescence intensity” value (SfurOBP1; ligand concentration 18 (μM)) was 6689 and 7935 and 7391 and the “Fluorescence competitive binding assay, fluorescence intensity” value (SfurOBP1; ligand concentration 20 (μM)) was 6918 and 6511 and 6565. The IC50 (SfurOBP1; SfurOBP1, protein and 1-NPN both 2.0 µM, competitor 2-20 µM, read-out: IC50) was over 20 µM, the “number of insects choosing hexane arm” value (S. furcifera adults) was 13 and the “number of insects choosing volatilies arm” value (S. furcifera adults) was 15. The “number of insects failed (no choice)” value (S. furcifera adults) was 12.
